The record followed here is patent publication US20130253022A1 (FOX CHASE CHEMICAL DIVERSITY CENTER, INC., priority 2010, published 2013).

This assay has as its system Hippocampal Cultures. Briefly: Neuroprotection from heavy metal toxicity, CFDA assay. Type of assay: cell-based, rat. The conditions noted are these: for EC50: Rattus norvegicus. An excerpt:
All compounds were screened with dissociated hippocampal cultures derived from embryonic day 18 rats as the primary test system. With this preparation, primary neurons were used to test for prevention of heavy metal toxicity by the disclosed compounds. In brief, hippocampal tissue was obtained commercially through Brain Bits (Springfield, Ill.) and cultures prepared as previously described (Brewer, G. J. Serum-free B27/neurobasal medium supports differentiated growth of neurons from the striatum, substantia nigra, septum, cerebral cortex, cerebellum and dentate gyms, J. Neurosci. Res., 1995, 42, 674-683). The hippocampal neurons were platted at low density (10,000 cell/well) in a 96-well format and maintained in serum-free medium consisting of Neurobasal Medium supplemented with B27 and GlutaMAX (Gibco). Pre-coated poly-L-lysine coated plates are used because of the preferential adherence and survival of hippocampal neurons on this matrix support. Heavy metal toxicity is associated with the occurrence of seizures ([…] et al. Zinc and copper: pharmacological probes and endogenous modulators of neuronal excitability. Pharmacol. Ther. 2006, 111, 567-583). Therefore, the heavy metal toxicity studies serve as another example of the oxidative stress that the disclosed compounds have a protection action against. To establish the dose-dependency of test agents, day 18 hippocampal cultures were utilized to study the toxicity produced after treatment with the heavy metals and neuroprotection after treatment with test compounds. Serving as examples of heavy metal salts for these studies are the following: […] Prior to treatment, the B27/Neural Basal media of the cultures were replaced with B27 neural basal medium without antioxidants for 18 hours. […] Further, the removal of antioxidants in the medium was performed to obtain a significant and reproducible toxic signal for heavy metal treatment of the hippocampal neurons. Toxicity produced by heavy metals is measured by decreases in neuronal viability. Carboxyfluorescein (CFDA) was used a vital stain for all cell toxicity and neuroprotection studies. With the use of the CytoFluor fluorimeter, the CFDA assay was employed to assess the viability of neurons. CFDA is a dye that becomes fluorescent upon cell entry and cleavage by cytosolic esterases (Petroski and Geller. Selective labeling of embryonic neurons cultures on astrocyte monolayers with 5(6)-carboxyfluorescein diacetate [CFDA]. J. Neurosci. Methods 1994, 52, 23-32). Neuronal specificity is obtained relative to astrocytes because the cleaved dye is extruded extracellularlly by glia with time, while dye in neurons remains intracellular. Dose responses to the various heavy metal salts determined the minimal concentration that produced the maximum amount of toxicity. […] All test compounds are dissolved to 10 mM in Dulbecco's phosphate buffered saline (DPBS; Sigma: D-5780) prior to testing. To test for neuroprotection from a heavy metal toxicity, day 11 hippocampal cultures are given a complete change of medium containing 100 μl of Neurobasal medium with B27 that contain no antioxidants. Twenty-four hours after the change in medium, the heavy metal neuroprotection studies are started. […] At the conclusion of the 4 hour incubation period, the dye is removed from the cultures and washed once with 100 μl of DPBS. After removal of the first wash, a second wash of DPBS is added to the culture and then incubated for 30 min to allow the efflux of dye out of glia in the cultures. At the conclusion of the 30 min efflux period, the culture efflux medium is removed and 100 μl of 0.1% triton-X100 in water is added to the cultures before reading at Ex490/Em517 in a CytoFluor fluorimeter. Results are expressed in relative fluorescent units (RFU) and EC50's calculated from the dose response of the test compound.

Molecules are shown by their SMILES.

As a reminder, the EC50 is the concentration at which the effect is half-maximal. As to `NS(=O)(=O)NCC(F)(F)c1ccccc1F` [Example 1, 2,2-Difluoro-2-(2-fluorophenyl)-ethyl-1-sulfamide], the half-maximal effective concentration (EC50) is 100 nM (Cobalt Chloride hexahydrate 10 μM); 0.1 nM (Copper Acetate monohydrate 10 μM); 1 nM (Iron sulfate hexahydrate 10 μM); 10 nM (Nickel Chloride hexahydrate 10 μM); 0.1 nM (Zinc Acetate dehydrate 1 μM). Also, the “Prevention of toxicity of 5 heavy metals” value (five heavy metal salts at the Table 3 concentrations, CFDA and PI assays) was “prevented the toxicity of 5 heavy metals”.
